Experimental data reported in the NIST ThermoML archive (doi:10.1021/acs.jced.8b01075).

Assay: molar heat capacity at saturation pressure
Settings: Crystal, Small (less than 1 g) adiabatic calorimetry

[Al+3].[Al+3].[O-2].[O-2].[O-2] [aluminum oxide (Al2O3)]
Settings | molar heat capacity [J/K/mol]
81.94 K | 7.415
84.02 K | 7.956
87.02 K | 8.82
90.02 K | 9.678
93.01 K | 10.58
96 K | 11.53
98.99 K | 12.53
101.97 K | 13.54
104.94 K | 14.57
107.93 K | 15.61
110.92 K | 16.7
113.92 K | 17.8
116.92 K | 18.91
119.93 K | 20.06
122.94 K | 21.18
125.95 K | 22.36
128.99 K | 23.51
132.02 K | 24.71
135.04 K | 25.91
138.07 K | 27.14
141.09 K | 28.39
144.13 K | 29.63
147.16 K | 30.83
150.2 K | 32.05
153.23 K | 33.28
156.27 K | 34.49
159.31 K | 35.7
162.35 K | 36.9
165.39 K | 38.13
168.44 K | 39.32
171.48 K | 40.52
174.52 K | 41.67
177.6 K | 42.88
180.64 K | 44.01
183.68 K | 45.17
186.72 K | 46.24
189.76 K | 47.4
192.8 K | 48.56
195.84 K | 49.61
198.88 K | 50.65
201.91 K | 51.8
204.95 K | 52.77
207.97 K | 53.81
211 K | 54.84
214.02 K | 55.88
217.04 K | 56.95
220.05 K | 57.85
223.06 K | 58.88
226.07 K | 59.93
229.07 K | 60.93
232.07 K | 61.8
235.06 K | 62.67
238.05 K | 63.55
241.03 K | 64.4
244.01 K | 65.33
246.98 K | 66.26
249.94 K | 67.1
252.9 K | 67.9
255.85 K | 68.71
258.78 K | 69.49
261.71 K | 70.19
264.63 K | 71.03
267.53 K | 71.84
270.43 K | 72.53

O=C(O)c1ccccc1 [benzoic acid]
Settings | molar heat capacity [J/K/mol]
4.54 K | 0.238
4.75 K | 0.256
4.88 K | 0.271
5.02 K | 0.296
5.16 K | 0.31
5.29 K | 0.316
5.42 K | 0.327
5.53 K | 0.343
5.64 K | 0.358
5.75 K | 0.372
5.85 K | 0.388
5.95 K | 0.419
6.07 K | 0.438
6.22 K | 0.468
6.38 K | 0.502
6.53 K | 0.521
6.7 K | 0.571
6.84 K | 0.618
6.99 K | 0.662
7.14 K | 0.7
7.29 K | 0.731
7.43 K | 0.778
7.57 K | 0.823
7.72 K | 0.893
7.86 K | 0.954
8.01 K | 0.978
8.16 K | 1.053
8.31 K | 1.116
8.46 K | 1.163
8.6 K | 1.263
8.76 K | 1.329
8.91 K | 1.384
9.07 K | 1.472
9.22 K | 1.512
9.38 K | 1.58
9.53 K | 1.649
9.69 K | 1.725
9.84 K | 1.858
10 K | 1.902
10.21 K | 2.036
10.49 K | 2.207
10.76 K | 2.354
11.04 K | 2.56
11.32 K | 2.751
11.6 K | 2.956
11.88 K | 3.123
12.17 K | 3.346
12.45 K | 3.529
12.75 K | 3.819
13.03 K | 4.037
13.33 K | 4.28
13.62 K | 4.532
13.91 K | 4.755
14.01 K | 4.933
14.31 K | 5.137
14.6 K | 5.519
14.9 K | 5.794
15.19 K | 6.073
15.49 K | 6.356
15.79 K | 6.616
16.09 K | 6.911
16.39 K | 7.207
16.7 K | 7.541
17 K | 7.836
17.3 K | 8.091
17.6 K | 8.409
17.91 K | 8.786
18.21 K | 9.095
18.52 K | 9.471
18.83 K | 9.71
19.13 K | 10.14
19.44 K | 10.4
19.58 K | 10.55
19.75 K | 10.7
19.89 K | 10.86
20.52 K | 11.49
21.41 K | 12.5
22.31 K | 13.49
23.22 K | 14.56
24.13 K | 15.56
25.05 K | 16.55
25.98 K | 17.58
26.92 K | 18.63
27.86 K | 19.67
28.81 K | 20.7
29.76 K | 21.73
30.71 K | 22.75
31.67 K | 23.72
32.64 K | 24.69
33.6 K | 25.68
34.57 K | 26.57
35.56 K | 27.57
36.53 K | 28.47
37.51 K | 29.44
38.5 K | 30.44
39.89 K | 31.71
40.89 K | 32.53
41.89 K | 33.31
42.89 K | 33.99
43.89 K | 34.84
44.89 K | 35.7
45.89 K | 36.42
46.89 K | 37.22
47.9 K | 38.04
48.9 K | 38.77
49.91 K | 39.47
50.92 K | 40.13
51.94 K | 40.84
52.95 K | 41.56
53.97 K | 42.16
54.98 K | 42.68
56.02 K | 43.44
57.03 K | 44.09
58.06 K | 44.66
59.17 K | 45.31
60.19 K | 45.98
61.22 K | 46.55
62.24 K | 47.19
63.27 K | 47.79
64.3 K | 48.32
65.32 K | 48.9
66.35 K | 49.45
67.38 K | 49.97
68.41 K | 50.43
69.43 K | 50.89
71.27 K | 51.74
73.3 K | 52.71
75.33 K | 53.69
77.36 K | 54.68
78.78 K | 55.18
79.56 K | 55.66
81.07 K | 56.41
83.09 K | 57.46
85.1 K | 58.18
87.11 K | 58.97
89.11 K | 59.73
91.11 K | 60.5
93.12 K | 61.27
95.11 K | 62.07
97.11 K | 62.81
99.11 K | 63.57
101.6 K | 64.59
104.58 K | 65.66
107.58 K | 66.69
110.58 K | 67.85
113.59 K | 69.03
116.61 K | 70.18
119.62 K | 71.3
122.63 K | 72.54
125.65 K | 73.61
128.67 K | 74.78
131.69 K | 75.96
134.72 K | 77.09
137.76 K | 78.23
140.79 K | 79.41
143.83 K | 80.49
146.87 K | 81.68
149.91 K | 82.93
152.95 K | 84.03
156 K | 85.17
159.05 K | 86.37
162.09 K | 87.59
165.18 K | 88.85
168.23 K | 90.02
171.28 K | 91.22
174.33 K | 92.46
177.38 K | 93.64
180.44 K | 94.8
183.49 K | 96.08
186.54 K | 97.26
189.6 K | 98.55
192.66 K | 99.83
195.71 K | 101
198.77 K | 102.3
201.83 K | 103.6
204.89 K | 104.9
208.45 K | 106.6
212.52 K | 108.2
216.67 K | 110.1
220.76 K | 111.7
224.85 K | 113.5
228.95 K | 115.3
237.16 K | 119
241.28 K | 120.8
245.39 K | 122.6
249.52 K | 124.4
253.64 K | 126.3
257.77 K | 128.1
261.9 K | 130
266.04 K | 132
270.19 K | 133.8
274.34 K | 135.7
278.49 K | 137.6
282.77 K | 139.8
286.93 K | 141.6
291.09 K | 143.5
295.26 K | 145.5
299.42 K | 147.4
304.38 K | 149.7
310.53 K | 152.6
317.37 K | 155.7
324.19 K | 158.8
330.99 K | 162
